Results from ChEMBL document CHEMBL1155791, “A novel Syk family kinase inhibitor: design, synthesis, and structure-activity relationship of 1,2,4-triazolo[4,3-c]pyrimidine and 1,2,4-triazolo[1,5-c]pyrimidine derivatives” (Bioorg Med Chem, 2008).
In brackets after ≈: the same amount, converted by molar mass. One block for each compound: values may come before it.

Columns and labels:
[1] = target: Tyrosine-protein kinase SYK (Homo sapiens, UniProt P43405)
[2] = target: T1, Tyrosine-protein kinase ZAP-70 (Homo sapiens, UniProt P43403); experiment: Inhibition of human ZAP70
T1 sequence (P43403 whole entry): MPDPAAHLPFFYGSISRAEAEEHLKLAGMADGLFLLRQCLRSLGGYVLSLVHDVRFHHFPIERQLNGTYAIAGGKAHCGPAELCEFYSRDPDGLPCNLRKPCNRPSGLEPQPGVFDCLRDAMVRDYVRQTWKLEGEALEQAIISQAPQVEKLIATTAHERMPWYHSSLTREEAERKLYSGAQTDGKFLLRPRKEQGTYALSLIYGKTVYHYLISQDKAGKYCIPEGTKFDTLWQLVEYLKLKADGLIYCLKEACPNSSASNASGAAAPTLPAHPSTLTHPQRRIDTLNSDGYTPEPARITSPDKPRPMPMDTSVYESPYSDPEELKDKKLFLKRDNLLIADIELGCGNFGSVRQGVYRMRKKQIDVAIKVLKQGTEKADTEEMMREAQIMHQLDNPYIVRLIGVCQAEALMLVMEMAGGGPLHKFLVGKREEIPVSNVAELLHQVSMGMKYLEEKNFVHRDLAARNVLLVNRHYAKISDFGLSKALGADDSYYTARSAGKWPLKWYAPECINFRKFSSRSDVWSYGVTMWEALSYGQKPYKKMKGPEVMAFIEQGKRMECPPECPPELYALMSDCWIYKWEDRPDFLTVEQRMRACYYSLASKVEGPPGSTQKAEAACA

[3] = Aqueous solubility of the compound; type: physicochemical; settings: water
[4] = target: Tyrosine-protein kinase Lck (Homo sapiens, UniProt P06239)
Tyrosine-protein kinase Lck, sequence (P06239 whole entry): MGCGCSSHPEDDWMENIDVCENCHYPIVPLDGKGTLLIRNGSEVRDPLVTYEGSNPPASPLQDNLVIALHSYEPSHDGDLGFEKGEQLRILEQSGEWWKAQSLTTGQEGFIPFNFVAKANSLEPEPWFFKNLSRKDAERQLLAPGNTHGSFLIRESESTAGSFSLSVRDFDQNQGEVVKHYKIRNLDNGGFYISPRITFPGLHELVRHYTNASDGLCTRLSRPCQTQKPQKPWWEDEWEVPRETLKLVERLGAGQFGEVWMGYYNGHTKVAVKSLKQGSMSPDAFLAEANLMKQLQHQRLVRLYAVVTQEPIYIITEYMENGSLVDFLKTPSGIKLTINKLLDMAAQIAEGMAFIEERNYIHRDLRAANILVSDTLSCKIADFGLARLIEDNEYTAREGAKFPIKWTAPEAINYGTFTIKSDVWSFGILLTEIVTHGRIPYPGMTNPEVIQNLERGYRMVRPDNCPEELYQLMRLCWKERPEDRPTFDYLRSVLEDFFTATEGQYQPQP

[5] = target: Protein kinase C beta type (Homo sapiens, UniProt P05771)
Protein kinase C beta type, sequence (P05771 whole entry): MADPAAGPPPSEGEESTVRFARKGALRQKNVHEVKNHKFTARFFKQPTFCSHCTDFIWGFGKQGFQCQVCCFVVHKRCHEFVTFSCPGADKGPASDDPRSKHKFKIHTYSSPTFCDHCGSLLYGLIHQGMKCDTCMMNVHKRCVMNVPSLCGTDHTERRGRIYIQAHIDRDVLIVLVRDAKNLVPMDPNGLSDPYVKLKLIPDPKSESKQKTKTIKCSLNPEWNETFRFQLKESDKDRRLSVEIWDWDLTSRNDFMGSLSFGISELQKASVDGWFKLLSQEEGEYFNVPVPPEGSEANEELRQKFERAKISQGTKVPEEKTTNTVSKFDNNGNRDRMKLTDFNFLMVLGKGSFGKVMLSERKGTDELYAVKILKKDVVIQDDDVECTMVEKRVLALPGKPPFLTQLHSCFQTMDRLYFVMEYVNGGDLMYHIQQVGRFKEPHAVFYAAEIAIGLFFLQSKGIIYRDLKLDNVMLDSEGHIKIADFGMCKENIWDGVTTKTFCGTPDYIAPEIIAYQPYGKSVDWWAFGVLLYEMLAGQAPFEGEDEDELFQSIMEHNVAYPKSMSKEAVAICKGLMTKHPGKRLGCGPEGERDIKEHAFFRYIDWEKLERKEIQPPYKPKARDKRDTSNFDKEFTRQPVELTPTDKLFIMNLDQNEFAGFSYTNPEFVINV

PBMC = experiment: Suppression of IL2 production in human PBMC after 24 hrs by ELISA
Blood = experiment: Suppression of IL2 production in human whole blood after 24 hrs by ELISA

Structure (SMILES): COc1cc(Nc2nc(N[C@H]3CCCC[C@H]3N)n3cnnc3c2C(N)=O)cc(OC)c1 (relative stereo)
IC50 [1]: 9 nM
IC50 [2]: 120 nM
solubility [3]: 351 µg/mL (≈ 823 µM)
IC50 [4]: 180 nM
IC50 [5]: 680 nM

Structure (SMILES): COc1cc(Nc2nc(NCC(=O)OC(C)(C)C)n3cnnc3c2C(N)=O)cc(OC)c1
IC50 [1]: 79100 nM

Structure (SMILES): COc1cc(Nc2nc(N[C@H]3CCCC[C@H]3N)n3ncnc3c2C(N)=O)cc(OC)c1 (relative stereo)
IC50 [1]: 4 nM
IC50 [2]: 330 nM
solubility [3]: 42 µg/mL (≈ 98.5 µM)
IC50 [4]: 590 nM
IC50 [5]: 2660 nM

Structure (SMILES): COc1cc(Nc2nc(NCCCN)n3cnnc3c2C(N)=O)cc(OC)c1
IC50 [1]: 7700 nM

Structure (SMILES): COc1cc(Nc2nc(N[C@H]3CCCC[C@H]3N)n3c(-c4ccccc4)nnc3c2C(N)=O)cc(OC)c1 (relative stereo)
IC50 [1]: 15200 nM

Now from value to compound, other results behind:

IC50 [1]: 150 nM
Structure (SMILES): COc1cc(Nc2nc(NCC(C)(C)N)n3cnnc3c2C(N)=O)cc(OC)c1

IC50 [1]: 9 nM
Structure (SMILES): COc1cc(Nc2nc(NCCN)n3cnnc3c2C(N)=O)cc(OC)c1

IC50 [1]: 83 nM
solubility [3]: 1.2 µg/mL (≈ 2.39 µM)
IC50 (Blood): 2000 nM
Structure (SMILES): COc1cc(Nc2nc(N[C@H]3CCCC[C@H]3N)n3nc(-c4ccccc4)nc3c2C(N)=O)cc(OC)c1 (relative stereo)
IC50 (PBMC): 210 nM

IC50 [1]: 6100 nM
Structure (SMILES): COc1cc(Nc2nc(NCCO)n3cnnc3c2C(N)=O)cc(OC)c1

IC50 [1]: 120 nM
Structure (SMILES): COc1cc(Nc2nc(N[C@H]3CCCC[C@H]3N)n3nc(-c4cccc(OC)c4)nc3c2C(N)=O)cc(OC)c1 (relative stereo)

IC50 [1]: 50 nM
Structure (SMILES): COc1cc(Nc2nc(N[C@H]3CCCC[C@H]3N)n3nc(-c4ccccc4Cl)nc3c2C(N)=O)cc(OC)c1 (relative stereo)
IC50 (PBMC): 1760 nM
